Molecular target: T1, glucosamine-6-phosphate synthase (Escherichia coli, UniProt P17169)
T1 construct: allowed mutagenesis of a 2247 base pair region that included the entire glmS gene; made in house; host or cells: E. coli W3110-derived (DE3) production strains with integrated T7-glmS cassette; crude extract
Format: biochemical
Settings: spectrophotometric assay, FIG. 5
Method: In the spectrophotometric assay, 1 mL reactions containing 50 mM KH2PO4/K2HPO4, 10 nM fructose-6-phosphate, 6 mM L-glutamine, 10 mM KCl, 0.6 mM acetylpyridine adenine dinucleotide (APAD), and 50-60 Units of L-glutamic dehydrogenase (Sigma Type II from bovine liver) were run at room temperature. The activity was followed by monitoring the absorbance at 365 nm after the addition of extract and corrected for the small absorbance increase observed in the absence of extract. The activity was calculated using a molar extinction coefficient for APAD of 9100.
Using the spectrophotometric assay for glucosamine-6-phosphate synthase as described in Example 2, the effects of glucosamine-6-phosphate and glucosamine on glucosamine-6-phosphate synthase were measured. For determination of product inhibition, assays were run in the presence of various concentrations of added glucosamine-6-phosphate.
The strains were grown overnight in LB broth containing 100 μg/mL ampicillin and 1 mM IPTC. […]
Strains 2123-12, 2123-49, 2123-54, 2123-124, 2123-149, and 2123-151, described in the examples above, were grown overnight in LB broth at 37° C. then transferred to fresh LB broth. Cultures were grown to an absorbance at 600 nm of 0.8 to 0.9, then induced for GlcN6P synthase production by the addition of 1 mM IPTG. […]

T1 sequence (P17169 2-609): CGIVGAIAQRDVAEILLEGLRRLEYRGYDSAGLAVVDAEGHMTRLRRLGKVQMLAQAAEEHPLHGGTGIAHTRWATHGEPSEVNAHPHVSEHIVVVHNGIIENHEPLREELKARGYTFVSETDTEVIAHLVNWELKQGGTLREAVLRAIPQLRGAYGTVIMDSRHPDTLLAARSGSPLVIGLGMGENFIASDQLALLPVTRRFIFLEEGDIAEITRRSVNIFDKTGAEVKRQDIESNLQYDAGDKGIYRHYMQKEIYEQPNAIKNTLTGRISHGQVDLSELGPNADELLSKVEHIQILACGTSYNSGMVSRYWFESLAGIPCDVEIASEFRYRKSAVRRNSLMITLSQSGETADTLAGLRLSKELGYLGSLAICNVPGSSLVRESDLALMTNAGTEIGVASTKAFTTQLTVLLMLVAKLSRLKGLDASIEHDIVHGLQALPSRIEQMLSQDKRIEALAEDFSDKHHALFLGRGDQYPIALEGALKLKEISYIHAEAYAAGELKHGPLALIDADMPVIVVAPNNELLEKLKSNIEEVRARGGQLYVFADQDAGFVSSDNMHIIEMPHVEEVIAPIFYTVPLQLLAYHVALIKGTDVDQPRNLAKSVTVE

Row | Structure (SMILES) | Inhibition of glucosamine-6-phosphate synthase by the added substance
1 | N[C@H]1C(O)O[C@H](COP(=O)(O)O)[C@@H](O)[C@@H]1O (some centres unmarked) [glucosamine-6-phosphate] | significantly inhibited
2 | N[C@H]1C(O)O[C@H](CO)[C@@H](O)[C@@H]1O (some centres unmarked) [glucosamine] | slightly inhibited

— patent US6372457B1, “Process and materials for production of glucosamine” (Arkion Life Sciences LLC, priority 1997, dated 2002)
